Data as given in ChEMBL document CHEMBL3232814, “Synthesis and anticancer structure activity relationship investigation of cationic anthraquinone analogs” (2014).

Tests used:
Format in all cases: functional
[1] = test system: NCI-H23; assay: Growth inhibition of human NCI-H23 cells; details: for CC50: read-out: LC50 (the source's name)
[2] = test system: SW-620; assay: Growth inhibition of human SW620 cells; details: for CC50: read-out: LC50 (the source's name)
[3] = Growth inhibition of human HCC2998 cells; details: for GI50: HCC 2998; for CC50: HCC 2998, read-out: LC50 (the source's name)
[4] = test system: NCI-H226; assay: Growth inhibition of human NCI-H226 cells; details: for CC50: read-out: LC50 (the source's name)
[5] = test system: SK-MEL-28; assay: Growth inhibition of human SK-MEL-28 cells; details: for CC50: read-out: LC50 (the source's name)
[6] = test system: HOP-62; assay: Growth inhibition of human HOP62 cells; details: for CC50: read-out: LC50 (the source's name)
[7] = test system: HT-29; assay: Growth inhibition of human HT-29 cells
[8] = Growth inhibition of human HCT15 cells; details: for GI50: HCT-15; for CC50: HCT-15, read-out: LC50 (the source's name)
[9] = test system: NCI-H460; assay: Growth inhibition of human NCI-H460 cells; details: for CC50: read-out: LC50 (the source's name)
[10] = test system: SK-MEL-5; assay: Growth inhibition of human SK-MEL-5 cells
[11] = test system: SNB-19; assay: Growth inhibition of human SNB19 cells
[12] = test system: A549; assay: Growth inhibition of human A549 cells; details: for CC50: read-out: LC50 (the source's name)
[13] = Growth inhibition of human LOXIMVI cells; details: LOX IMVI; for CC50: read-out: LC50 (the source's name)
[14] = Growth inhibition of human NCI60 cells assessed as cell growth; set-up: concentration or dose not given beside the values
[15] = test system: MDA-MB-435; assay: Growth inhibition of human MDA-MB-435 cells; details: for CC50: read-out: LC50 (the source's name)
[16] = test system: HCT-116; assay: Growth inhibition of human HCT116 cells; details: for CC50: read-out: LC50 (the source's name)
[17] = Growth inhibition of human HOP92 cells; details: for GI50: HOP-92; for CC50: HOP-92, read-out: LC50 (the source's name)
[18] = Growth inhibition of human SF295 cells; details: SF-295
[19] = Growth inhibition of human SF539 cells; details: for GI50: SF-539; for CC50: SF-539, read-out: LC50 (the source's name)
[20] = test system: U-251; assay: Growth inhibition of human U251 cells
[21] = test system: NCI-H522; assay: Growth inhibition of human NCI-H522 cells; details: for CC50: read-out: LC50 (the source's name)
[22] = test system: COLO 205; assay: Growth inhibition of human COLO205 cells; details: for CC50: read-out: LC50 (the source's name)
[23] = Growth inhibition of human UACC62 cells; details: for GI50: UACC-62; for CC50: UACC-62, read-out: LC50 (the source's name)
[24] = test system: KM12; assay: Growth inhibition of human KM12 cells; details: for CC50: read-out: LC50 (the source's name)
[25] = test system: SF-268; assay: Growth inhibition of human SF268 cells; details: for CC50: read-out: LC50 (the source's name)
[26] = Growth inhibition of human EKVX cells; details: for CC50: read-out: LC50 (the source's name)
[27] = test system: M14; assay: Growth inhibition of human M14 cells; details: for CC50: read-out: LC50 (the source's name)
[28] = test system: NCI-H322M; assay: Growth inhibition of human NCI-H322M cells; details: for CC50: read-out: LC50 (the source's name)
[29] = test system: SK-MEL-2; assay: Growth inhibition of human SK-MEL-2 cells; details: for CC50: read-out: LC50 (the source's name)
[30] = Growth inhibition of human UACC257 cells; details: for GI50: UACC-257; for CC50: UACC-257, read-out: LC50 (the source's name)
[31] = test system: Malme-3M; assay: Growth inhibition of human MALME-3M cells; details: for CC50: read-out: LC50 (the source's name)
[32] = test system: SNB-75; assay: Growth inhibition of human SNB75 cells; details: for CC50: read-out: LC50 (the source's name)

C[n+]1nn(-c2ccc(C(F)(F)F)cc2)c2c1C(=O)c1ccccc1C2=O.O=S(=O)([O-])C(F)(F)F
GI50 [1]: 0.36 µM
CC50 [1]: 5.33 µM
GI50 [2]: 14 µM
CC50 [2]: 64.3 µM
GI50 [3]: 1.52 µM
CC50 [3]: 12.9 µM
GI50 [4]: 10.1 µM
CC50 [4]: 89.4 µM
GI50 [5]: 12.8 µM
CC50 [5]: 56.5 µM
GI50 [6]: 2.12 µM
CC50 [6]: 26 µM
GI50 [7]: 4.1 µM
LC50 [7]: > 100 µM
GI50 [8]: 3.48 µM
CC50 [8]: 84 µM
GI50 [9]: 1.4 µM
CC50 [9]: 7.77 µM
GI50 [10]: 0.16 µM
LC50 (lethal concentration 50) [10]: 0.57 µM
GI50 [11]: 1.45 µM
LC50 [11]: 6.54 µM
GI50 [12]: 0.86 µM
CC50 [12]: > 100 µM
GI50 [13]: 2.68 µM
CC50 [13]: 36.8 µM
Activity [14]: 58.69%
GI50 [15]: 1.09 µM
CC50 [15]: 7.28 µM
GI50 [16]: 3.42 µM
CC50 [16]: 41.9 µM
GI50 [17]: > 100 µM
CC50 [17]: > 100 µM
GI50 [18]: 0.54 µM
LC50 (concentration killing 50% of cells) [18]: 6.74 µM
GI50 [19]: 4.68 µM
CC50 [19]: 46.7 µM
GI50 [20]: 14 µM
LC50 [20]: 56.8 µM
GI50 [21]: 14.3 µM
CC50 [21]: 68.2 µM
GI50 [22]: 1.32 µM
CC50 [22]: 5.73 µM
GI50 [23]: 1.67 µM
CC50 [23]: 30.6 µM
GI50 [24]: 8.17 µM
CC50 [24]: 55.9 µM
GI50 [25]: 18.7 µM
CC50 [25]: > 100 µM
GI50 [26]: 23.4 µM
CC50 [26]: > 100 µM
GI50 [27]: 0.54 µM
CC50 [27]: 4.38 µM
GI50 [28]: 0.83 µM
CC50 [28]: 4.86 µM
GI50 [29]: 12.5 µM
CC50 [29]: > 100 µM
GI50 [30]: 3.24 µM
CC50 [30]: 43.1 µM
GI50 [31]: 1.84 µM
CC50 [31]: 9.35 µM
GI50 [32]: 1.07 µM
CC50 [32]: 11.2 µM

C[n+]1nn(-c2ccc(Cl)cc2)c2c1C(=O)c1ccccc1C2=O.O=S(=O)([O-])C(F)(F)F
Activity [14]: 101.7%

C[n+]1nn(-c2ccc(F)cc2)c2c1C(=O)c1ccccc1C2=O.O=S(=O)([O-])C(F)(F)F
GI50 [1]: 0.82 µM
CC50 [1]: 7.25 µM
GI50 [2]: 6.12 µM
CC50 [2]: 47.5 µM
GI50 [3]: 1.4 µM
CC50 [3]: 8.22 µM
GI50 [4]: 2.26 µM
CC50 [4]: 23 µM
GI50 [5]: 4.27 µM
CC50 [5]: 45.9 µM
GI50 [6]: 2.4 µM
CC50 [6]: 32.9 µM
GI50 [7]: 2.51 µM
LC50 [7]: 48 µM
GI50 [8]: 3.72 µM
CC50 [8]: 50.9 µM
GI50 [9]: 0.63 µM
CC50 [9]: 9 µM
GI50 [10]: 0.17 µM
LC50 (lethal concentration 50) [10]: 0.6 µM
GI50 [11]: 1.37 µM
LC50 [11]: 5.88 µM
GI50 [12]: 0.67 µM
CC50 [12]: 5.46 µM
GI50 [13]: 1.35 µM
CC50 [13]: 8.17 µM
Activity [14]: 43.38%
GI50 [15]: 0.26 µM
CC50 [15]: 2.21 µM
GI50 [16]: 1.5 µM
CC50 [16]: 8.19 µM
GI50 [17]: 10.7 µM
CC50 [17]: > 100 µM
GI50 [18]: 0.58 µM
LC50 (concentration killing 50% of cells) [18]: 4.94 µM
GI50 [19]: 1.83 µM
CC50 [19]: 8.4 µM
GI50 [20]: 7.86 µM
LC50 [20]: 45.3 µM
GI50 [21]: 12.1 µM
CC50 [21]: 53.8 µM
GI50 [22]: 0.35 µM
CC50 [22]: 3.54 µM
GI50 [23]: 1.55 µM
CC50 [23]: 7.67 µM
GI50 [24]: 2.4 µM
CC50 [24]: 33.5 µM
GI50 [25]: 3.67 µM
CC50 [25]: 46 µM
GI50 [26]: 3.28 µM
CC50 [26]: 62 µM
GI50 [27]: 0.34 µM
CC50 [27]: 3.89 µM
GI50 [28]: 0.45 µM
CC50 [28]: 4.22 µM
GI50 [29]: 2.27 µM
CC50 [29]: 33.7 µM
GI50 [30]: 0.6 µM
CC50 [30]: 6.93 µM
GI50 [31]: 0.35 µM
CC50 [31]: 4.75 µM
GI50 [32]: 1.94 µM
CC50 [32]: 7.17 µM
